The values below are quoted from earlier work in US20160021884A1, “STABLE SOLUTIONS OF 1,2-BENZISOTHIAZOLIN-3-ONE” (TITAN CHEMICALS LIMITED, priority 2014, published 2016).

For the data set the following is noted: 5° C., 4 weeks.

Consider `O=c1[n-]sc2ccccc12.[Li+]` [lithium salt of BIT], for which the “Stability of purely aqueous solution” value was “stable at 5 °C for 4 weeks”.
